# Reference: patent publication US9408393B2, “Bismuth-thiols as antiseptics for agricultural, industrial and other uses” (Microbion Corporation, priority 2010, dated 2016)
# What was measured:
# Mycobacterium smegmatis = assay: Single-point BisEDT-antibiotic combination FICI; format: cell-based; conditions: Msmeg 817
# [1] = test system: Staphylococcus aureus (SA, MRSA); assay: Single-point BisEDT-antibiotic combination FICI; format: cell-based; conditions: MRSA 773
# Bukholderia multivorans = assay: Single-point BisEDT-antibiotic combination FICI; format: cell-based; conditions: Bmult 5665
# Enterococcus faecalis = assay: Single-point BisEDT-antibiotic combination FICI; format: cell-based; conditions: E Fc 3121
# Acinetobacter baumanii = assay: Single-point BisEDT-antibiotic combination FICI; format: cell-based; conditions: Abau 2594
# Escherichia coli = assay: Single-point BisEDT-antibiotic combination FICI; format: cell-based; conditions: EC 2232
# Pseudomonas aeruginosa = assay: Single-point BisEDT-antibiotic combination FICI; format: cell-based; conditions: PA 1380
# [2] = test system: Streptococcus pneumoniae (SP, PRSP); assay: Single-point BisEDT-antibiotic combination FICI; conditions: PRSP 5348
# Burkholderia cepacia = assay: Single-point BisEDT-antibiotic combination FICI; format: cell-based; conditions: Bcep 1756
# Klebsiella pneumoniae = assay: Single-point BisEDT-antibiotic combination FICI; format: cell-based; conditions: KP 1231
# [3] = test system: Gram-negative pathogenic bacteria; assay: Checkerboard broth microdilution MIC and FICI; format: cell-based; conditions: for MIC (μg/mL) Alone: compound alone; for FICI, Fractional Inhibitory Concentration Index: in combination with Cefotaxime
# Protocol: The effects of combinations of microparticulate Bis-EDT and four Bis-EDT analogs prepared as described above, and other agents against representative strains of several Gram-negative pathogenic bacteria were tested. A modification of a common laboratory method was used to determine synergism (FICI≦0.5), enhancement (0.5<FICI≦1.0), antagonism (FICI>4.0) and indifference (1.0<FICI≦4.0) used fractional inhibitory concentrations (FICs) and FIC indices (FICI) (Eliopoulos G and R Moellering. 1991. Antimicrobial combinations. In Antibiotics in Laboratory Medicine, Third Edition, edited by V Lorian. Williams and Wilkins, Baltimore, Md., pp. 432-492; Odds, 2003 J. Antimicrob. Chemother. 52(1):1). The checkerboard technique was used to determine FIC indices and was employed in this study.
# Stock solutions of all test articles were prepared at 40× the final target concentration in the appropriate solvent. […] The final drug concentrations in the FIC assay plates were set to bracket the MIC value of each agent for each test organism, unless the strain was totally resistant to the test agent. […] The test organisms were originally received from clinical sources, or from the American Type Culture Collection. Upon receipt, the isolates were streaked onto Tryptic Soy Agar II (TSA). Colonies were harvested from these plates and a cell suspension was prepared in an appropriate broth growth medium containing cryoprotectant. Aliquots were then frozen at −80° C. The frozen seeds of the organisms to be tested in a given assay were thawed, streaked for isolation onto TSA plates, and incubated at 35° C. All organisms were tested in Mueller Hinton II Broth (Becton Dickinson, Lot No. 9044411). The broth was prepared at 1.05× normal weight/volume to offset the 5% volume of the drugs in the final test plates.
# Minimal Inhibitory Concentration (MIC) values were previously determined using the broth microdilution method for aerobic bacteria (Clinical and Laboratory Standards Institute (CLSI). Methods for Dilution Antimicrobial Susceptibility Tests for Bacteria That Grow Aerobically; Approved Standard—Eighth Edition. CLSI document M07-A8 [ISBN 1-56238-689-1]. Clinical and Laboratory Standards Institute, 940 West Valley Road, Suite 1400, Wayne, Pa. 19087-1898 USA, 2009.).
# FIC values were determined using a broth microdilution method previously described (Sweeney et al., 2003 Antimicrob. Agents Chemother. 47(6):1902-1906). To prepare the test plates, automated liquid handlers (Multidrop 384, Labsystems, Helsinki, Finland; Biomek 2000 and Multimek 96, Beckman Coulter, Fullerton Calif.) were used to conduct serial dilutions and liquid transfers.
# The appropriate wells of standard 96-well microdilution plates (Falcon 3918) were filled with 150 μL of the appropriate solvent in columns 2-12 using the Multidrop 384. Three hundred microliters of each secondary test drug was added to each well in Column 1 of the plates. These plates were used to prepare the drug “mother plates” which provided the serial drug dilutions for the drug combination plates. The Biomek 2000 was used to transfer 150 μL of each secondary drug solution (40×) from the wells in Column 1 of the mother plate and to make eleven 2-fold serial dilutions. Mother plates of Bis-EDT (and analogs) were serial diluted top to bottom by hand, using a multichannel pipette. Two mother plates, one for each secondary drug and one for Bis-EDT (or analogs), were combined to form a “checkerboard” pattern by transfer of equal volumes (using a multi-channel pipette) to the drug combination plate. Row H and Column 12 each contained serial dilutions of one of the agents alone for determination of the MIC.
# The “daughter plates” were loaded with 180 μL of test medium using the Multidrop 384. Then, the Multimek 96 was used to transfer 10 μL of drug solution from each well of the drug combination mother plate to each corresponding well of the daughter plate in a single step.
# S. aureus = assay: Contaminated open fracture, rat femur critical defect model; format: in vivo; conditions: BT gel 5 mg/ml, 1 ml in defect, with Cefazolin 5 mgKg^−1 s.c. twice daily 3 days, day 14
# From the text: Standard errors of the mean are shown as error bars. Animals euthanized early are not excluded from the analysis, however samples from one animal in group 2 have been excluded due to gross contamination.
# The aim of this study was to determine whether BTs will reduce infection in a contaminated open fracture model either on their own or with antibiotics. The contaminated rat femur critical defect model is a well-accepted model and was used for the experiments described in this Example. This model offers a standardized model for comparing various possible treatments and their effects on reducing infection and/or improving healing.
# Three formulations of microparticulate BTs were produced in a clinically useful hydrogel gel form as described herein.
# Two treatment arms were used: in the first arm, BT was used singularly; in the second arm BT was used in conjunction with a systemic antibiotic (ABx).
# Six hours after inoculation with S. aureus, the wound was debrided, irrigated with saline and 1 ml of BT gel inserted within the defect.
# Six hours after inoculation with S. aureus, the wound was debrided, irrigated with saline and 1 ml of BT gel added inserted within the defect. The antibiotic used was Cefazolin at a dose equivalent to 5 mgKg^−1 delivered via sub-cutaneous injection twice daily for a total of 3-days following the injury. The first dose was administered immediately prior to debridement.
# Six hours after inoculation with S. aureus, the wound was debrided and irrigated with saline. The control animals were also treated with Cefazolin as per the regime described above.
# The procedure for the in vivo rat injury model was performed as described by Chen et al. (2002 J. Orthop. Res. 20:142; 2005 J. Orthop. Res. 23:816; 2006 J. Bone Joint Surg. Am. 88:1510; 2007 J. Orthop. Trauma 21:693). The rats were anesthetized and prepped for surgery. The anterolateral aspect of the femoral shaft was exposed through a 3-cm incision. The periosteum and attached muscle was stripped from the bone. A polyacetyl plate (27×4×4 mm) was placed on the anterolateral surface of the femur. The plates were predrilled to accept 0.9-mm diameter threaded Kirschner wires. The bases of these plates were formed to fit the contour of the femoral shaft. Pilot holes were drilled through both cortices of the femur using the plate as a template and threaded Kirschner wire was inserted through the plate and femur. The notches that were 6 mm apart on the plate served as a guide for bone removal. A small oscillating saw was used to create the defect while the tissue was cooled by continuous irrigation in an effort to prevent thermal damage.
# Several groups of 10 animals each were inoculated with 1×10^5 CFU of S. aureus and treated with BT alone or in combination with antibiotics 6 hours post-inoculation as described above. The groups were as follows: Bis-EDT gel; MB-11 gel; MB-8-2 gel; Bis-EDT gel & Abx; MB-11 gel & Abx; MB-8-2 gel & Abx; Control (Abx alone).
# Animals were euthanized 14 days after surgery and bone and hardware sent for microbiological analysis, the results of which are shown in FIG. 7.
# P. aeruginosa = assay: Checkerboard broth microdilution MIC and FICI; format: cell-based, Pseudomonas aeruginosa; conditions: for MIC (μg/mL) Alone: compound alone
# S. aureus strains = assay: In vitro inhibition from PMMA cement bead vehicle; format: cell-based, Staphylococcus aureus; conditions: with and without Tobramicin and Vancomycin
# [4] = P. aeruginosa 103, in combination with Cefepime
# [5] = P. aeruginosa 103, in combination with Cefotaxime
# [6] = P. aeruginosa 1381, in combination with Cefepime
# [7] = P. aeruginosa 1384, in combination with Cefepime
# [8] = P. aeruginosa 1474, in combination with Cefepime
# [9] = P. aeruginosa 1479, in combination with Cefepime
# [10] = P. aeruginosa 2566, in combination with Cefepime
# [11] = P. aeruginosa 2568, in combination with Cefepime
Molecule,"FICI, single-point BisEDT-antibiotic combination (Mycobacterium smegmatis)",MIC (μg/mL) Alone ([3]; K. pneumoniae 1346),"FICI, Fractional Inhibitory Concentration Index ([3]; K. pneumoniae 1346)",MIC (μg/mL) Alone ([3]; K. pneumoniae 1355),"FICI, Fractional Inhibitory Concentration Index ([3]; K. pneumoniae 1355)",MIC (μg/mL) Alone ([3]; K. pneumoniae 2238),"FICI, Fractional Inhibitory Concentration Index ([3]; K. pneumoniae 2238)",MIC (μg/mL) Alone ([3]; K. pneumoniae 2541),"FICI, Fractional Inhibitory Concentration Index ([3]; K. pneumoniae 2541)",MIC (μg/mL) Alone ([3]; K. pneumoniae 2546),MIC (μg/mL) Alone ([3]; K. pneumoniae 2549),"FICI, Fractional Inhibitory Concentration Index ([3]; K. pneumoniae 2549)","S. aureus infection detected on hardware, effect on Cefazolin activity (S. aureus)","S. aureus infection of injured bone, effect on Cefazolin activity (S. aureus)",MIC (μg/mL) Alone (P. aeruginosa; P. aeruginosa 103),"FICI, Fractional Inhibitory Concentration Index (P. aeruginosa; [4])","FICI, Fractional Inhibitory Concentration Index (P. aeruginosa; [5])",MIC (μg/mL) Alone (P. aeruginosa; P. aeruginosa 1381),"FICI, Fractional Inhibitory Concentration Index (P. aeruginosa; [6])",MIC (μg/mL) Alone (P. aeruginosa; P. aeruginosa 1384),also measured
NNC(=O)c1ccncc1 [Isoniazid],0.88,,,,,,,,,,,,,,,,,,,,
[H]/N=C(/N)N[C@H]1[C@H](O)[C@@H](O)[C@H](O[C@@H]2O[C@@H](C)[C@](O)(C=O)[C@H]2O[C@@H]2O[C@@H](CO)[C@H](O)[C@@H](O)[C@@H]2NC)[C@@H](N/C(N)=N\[H])[C@@H]1O [Streptomycin],1.13,,,,,,,,,,,,,,,,,,,,"FICI, single-point BisEDT-antibiotic combination [1]: 0.95; FICI, single-point BisEDT-antibiotic combination (Bukholderia multivorans): 1.12; FICI, single-point BisEDT-antibiotic combination (Enterococcus faecalis): 0.61; FICI, single-point BisEDT-antibiotic combination (Acinetobacter baumanii): 2.62; FICI, single-point BisEDT-antibiotic combination (Escherichia coli): 1.29; FICI, single-point BisEDT-antibiotic combination (Pseudomonas aeruginosa): 1.98; FICI, single-point BisEDT-antibiotic combination [2]: 0.66; FICI, single-point BisEDT-antibiotic combination (Burkholderia cepacia): 1.37; FICI, single-point BisEDT-antibiotic combination (Klebsiella pneumoniae): 1.04"
Capreomycin,0.75,,,,,,,,,,,,,,,,,,,,
bismuth pyrithione/butanedithiol [MB-8-2],,0.5 µg/mL,1.37,0.5 µg/mL,1.37,0.5 µg/mL,1.37,1 µg/mL,1.12,1 µg/mL,1 µg/mL,1.12,enhanced antibiotic activity,enhanced,2 µg/mL,1.11,1.11,2 µg/mL,1.23,2 µg/mL,"FICI, Fractional Inhibitory Concentration Index (P. aeruginosa; [7]): 0.80; MIC (μg/mL) Alone (P. aeruginosa; P. aeruginosa 1474): 2 µg/mL; FICI, Fractional Inhibitory Concentration Index (P. aeruginosa; [8]): 1.11; MIC (μg/mL) Alone (P. aeruginosa; P. aeruginosa 1479): 2 µg/mL; FICI, Fractional Inhibitory Concentration Index (P. aeruginosa; [9]): 1.23; MIC (μg/mL) Alone (P. aeruginosa; P. aeruginosa 2566): 2 µg/mL; FICI, Fractional Inhibitory Concentration Index (P. aeruginosa; [10]): 1.23; MIC (μg/mL) Alone (P. aeruginosa; P. aeruginosa 2568): 2 µg/mL; FICI, Fractional Inhibitory Concentration Index (P. aeruginosa; [11]): 0.98; Effect on S. aureus strains in vitro from PMMA cement beads (S. aureus strains): inhibitory effects"
bismuth pyrithione/ethanedithiol [MB-11],,0.5 µg/mL,1.37,0.5 µg/mL,1.87,0.5 µg/mL,1.37,0.5 µg/mL,0.73,0.5 µg/mL,0.5 µg/mL,1.37,enhanced antibiotic activity,enhanced,1 µg/mL,0.12,1.12,1 µg/mL,1.12,1 µg/mL,"FICI, Fractional Inhibitory Concentration Index ([3]; K. pneumoniae 2546): 1.37; FICI, Fractional Inhibitory Concentration Index (P. aeruginosa; [7]): 1.12; MIC (μg/mL) Alone (P. aeruginosa; P. aeruginosa 1474): 0.5 µg/mL; FICI, Fractional Inhibitory Concentration Index (P. aeruginosa; [8]): 1.12; MIC (μg/mL) Alone (P. aeruginosa; P. aeruginosa 1479): 0.5 µg/mL; FICI, Fractional Inhibitory Concentration Index (P. aeruginosa; [9]): 0.87; MIC (μg/mL) Alone (P. aeruginosa; P. aeruginosa 2566): 0.5 µg/mL; FICI, Fractional Inhibitory Concentration Index (P. aeruginosa; [10]): 0.93; MIC (μg/mL) Alone (P. aeruginosa; P. aeruginosa 2568): 0.5 µg/mL; FICI, Fractional Inhibitory Concentration Index (P. aeruginosa; [11]): 0.87; Effect on S. aureus strains in vitro from PMMA cement beads (S. aureus strains): inhibitory effects"
